Laboratory results: patent US20240293391A1, “ISOQUINOLINE AND PYRIDINE BASED CXCR4 ANTAGONISTS” (Katholieke Universiteit Leuven, priority 2021, published 2024)

Legend:
[1] = target: T1, CXCR4 (Homo sapiens, UniProt P61073); assay: CXCR4 calcium mobilization assay (CXCL12-induced, U87.CD4.CXCR4 cells, FLIPR); type: cell-based; settings: Concentration needed to inhibit CXCL12-induced calcium signaling by 50%
Description: (§1) First, the ability of the compounds to compete with fluorescently labeled CXCL12 (CXCL12^AF647) for binding at CXCR4 was determined. […] Finally, given the role of CXCR4 as a major coreceptor for HIV entry, the antiviral activity of the compounds against the X4-tropic wild type HIV-1 NL4-3 strain and the HIV-2 ROD strain was determined in MT-4 cells. In parallel, the cytotoxicity of the compounds for uninfected MT-4 cells was assessed.
The calcium mobilization assay has been described in detail previously [Claes et al. JoVE 2018, 132, 1-9]. U87.CD4.CXCR4 cells (2×10^4 cells per well in DMEM/10% FBS/0.01M HEPES) were seeded in gelatin-coated (Sigma-Aldrich; 0.1% gelatin in DPBS) black-walled 96-well plates and incubated overnight at 37° ° C. and 5% CO2. The next day, cells were loaded with the fluorescent calcium indicator Fluo-2 acetoxymethyl (AM) ester (4 μM; Abcam) and incubated at room temperature in the dark for 45 minutes. Then, cells were incubated with various concentrations of the compounds for 10 minutes prior to addition of 6.25 nM CXCL12 (in assay buffer). Fluctuations in intracellular calcium levels were measured in real time by the FLIPR Tetra® (Molecular Devices, Sunnyvale, CA, USA) in all 96 wells simultaneously. The response over baseline (after CXCL12 addition) was calculated with the ScreenWorks 4.0® software (Molecular Devices) by dividing the obtained relative light units (RLUs) through the base line measured just before CXCL12 addition. From this the IC50 value for each compound was determined taking into account the negative (i.e. untreated cells without CXCL12 stimulation) and positive (i.e. untreated cells with CXCL12 addition) control samples.

[2] = Cytotoxicity for mock-infected (uninfected) MT-4 cells; type: cell-based; settings: human, mock-infected (uninfected) MT-4 cells, Concentration required to reduce the viability of mock-infected MT4 cells by 50%
Description: (§2) First, the ability of the compounds to compete with fluorescently labeled CXCL12 (CXCL12^AF647) for binding at CXCR4 was determined. Secondly, since binding of CXCL12 to CXCR4 results into a transient increase of cytosolic calcium levels, the inhibition of this CXCL12-induced calcium mobilization by the various compounds was also investigated. […] In parallel, the cytotoxicity of the compounds for uninfected MT-4 cells was assessed. […] The anti-HIV assays in MT-4 cells been described in detail before [Hout et al. cited above; […] et al. AIDS 2004, 18, 2115-2125]. […] After five days, the cytopathic effect was checked microscopically and cell viability (i.e. viral replication) was evaluated using the MTS/PES-based CellTiter 96 Aqueous One Solution Cell Proliferation assay (Promega, Fitchburg, WI, USA). Absorbance was recorded using the VersaMax ELISATM microplate reader (Molecular Devices) and analyzed with the Softmax Pro® software (Molecular Devices).

[3] = target: T1, CXCR4; assay: CXCR4 binding assay (competition with CXCL12^AF647 on Jurkat cells, flow cytometry); set-up: endogenous in cells; host or cells: Jurkat cells
Description: as §1
The CXCL12^AF647 binding assay with Jurkat cells has been described previously [Schoofs et al. JoVE 2018, 133, 1-8]. Briefly, Jurkat cells were resuspended in assay buffer [Hank's Balanced Salt Solution (HBSS, Thermo Fisher Scientific), 20 mM HEPES buffer, 0.2% bovine serum albumin (Sigma-Aldrich), pH 7.4] at 3×10^5 cells per sample and then treated with various concentrations of the compound at room temperature for 15 minutes. Afterwards, the cells were incubated with 2.9 nM CXCL12^AF647 (in assay buffer) at room temperature for 30 minutes in the dark. Cells were fixed in 1% paraformaldehyde in DPBS and specific CXCL12^AF647 binding [i.e. mean fluorescence intensity (MFI)] was quantified by flow cytometry (FACSArray™; Becton Dickinson). Data were analyzed with FlowJo® Software. The 50% inhibitory concentration (IC50) was calculated for each compound relative to the negative (i.e. autofluorescence of untreated and unlabeled cells) and positive (i.e. untreated cells exposed to CXCL12^AF647 only) control.

[4] = tested on: MT-4 cells; assay: Cytotoxicity for mock-infected (uninfected) MT-4 cells; type: cell-based
Description: as §2

[5] = tested on: HIV-1 NL4-3; assay: Anti-HIV assay in MT-4 cells, HIV-1 NL4-3; type: cell-based; settings: Human immunodeficiency virus 1, NL43, MT4; Concentration required to achieve 50% protection of MT-4 cells against HIV-induced cytopathicity
Description: as §2

[6] = tested on: HIV-2 ROD; assay: Anti-HIV assay in MT-4 cells, HIV-2 ROD; type: cell-based; settings: Human immunodeficiency virus 2, MT4; Concentration required to achieve 50% protection of MT-4 cells against HIV-induced cytopathicity
Description: as §2

[7] = Concentration needed to inhibit CXCL12 receptor binding by 50%, Jurkat cells, mean of at least two independent experiments, read-out: CXCR4 Binding IC50

T1 sequence (P61073 whole entry): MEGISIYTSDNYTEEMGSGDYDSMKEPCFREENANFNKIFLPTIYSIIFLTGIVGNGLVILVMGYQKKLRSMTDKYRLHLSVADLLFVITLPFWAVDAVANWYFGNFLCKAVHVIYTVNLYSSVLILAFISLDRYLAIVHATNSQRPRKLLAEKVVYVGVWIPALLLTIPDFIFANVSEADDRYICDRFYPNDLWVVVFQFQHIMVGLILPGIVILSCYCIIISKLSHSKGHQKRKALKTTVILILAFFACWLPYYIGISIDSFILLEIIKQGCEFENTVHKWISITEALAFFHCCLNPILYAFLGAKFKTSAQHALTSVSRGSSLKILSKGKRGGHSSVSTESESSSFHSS

SMILES | IC50 [1] [nM] | IC50 [3, 7] [nM] | IC50 ([3]; span over all assays (binding, calcium, HIV-1, HIV-2), read-out: IC50 values in all assays) [nM] | EC50 [5] [nM] | EC50 [6] [nM] | CC50 at 5 days [2] [nM] | cytotoxicity for the MT4 cell line [4] | CC50 ([4]; Concentration required to reduce the viability of mock-infected MT4 cells by 50%) [nM]
COc1ccc2c(CN(CCCCN)Cc3ncccc3C)nccc2c1 [Compound 24b, N1-((6-Methoxyisoquinolin-1-yl)methyl)-N1-((3-methylpyridin-2-yl)methyl) butane-1,4-diamine] | 3850 | 890 | – | – | – | 9270 | – | –
NCCCCN(Cc1nccc2cc(Br)ccc12)C1CCCc2cccnc21 (stereo not shown) [Compound 19d, N1-((6-Bromoisoquinolin-1-yl)methyl)-N1-(5,6,7,8-tetrahydroquinolin-8-yl)butane-1,4-diamine] | 440 | 26 | – | – | – | 43600 | – | –
NCCCCN(Cc1nccc2cc(F)ccc12)C1CCCc2cccnc21 (stereo not shown) [Compound 19c, N1-((6-Fluoroisoquinolin-1-yl)methyl)-N1-(5,6,7,8-tetrahydroquinolin-8-yl)butane-1,4-diamine] | 33 | 8.9 | – | – | – | 18100 | – | –
COc1ccc2c(CN(CCCCN)C3CCCc4cccnc43)nccc2c1 (stereo not shown) [Compound 19b, N1-((6-Methoxyisoquinolin-1-yl)methyl)-N1-(5,6,7,8-tetrahydroquinolin-8-yl)butane-1,4-diamine] | 28 | 0.25 | – | – | – | 11100 | – | –
NCCCCN(Cc1nccc2ccccc12)C1CCCc2cccnc21 (stereo not shown) [Compound 19e, N1-(Isoquinolin-1-ylmethyl)-N1-(5,6,7,8-tetrahydroquinolin-8-yl)butane-1,4-diamine] | 130 | 9.2 | – | – | – | 26700 | lack cytotoxicity | –
c1cc(CN2CCCNCCNCCCNCC2)ccc1CN1CCCNCCNCCCNCC1 [Plerixafor, reference compound] | – | – | – | – | – | 6290 | – | –
COc1cc2ccnc(CN(CCCCN)Cc3ncccc3C)c2cc1OC [Compound 24a, N1-((6,7-dimethoxyisoquinolin-1-yl)methyl)-N1-((3-methylpyridin-2-yl)methyl) butane-1,4-diamine] | 13 | 3.2 | – | – | – | > 100000 | lack cytotoxicity | –
COc1cc2ccnc(CN(CCCCN)C3CCCc4cccnc43)c2cc1OC (stereo not shown) [Compound 19a, N1-((6,7-Dimethoxyisoquinolin-1-yl)methyl)-N1-(5,6,7,8-tetrahydroquinolin-8-yl) butane-1,4-diamine] | 25 | 7.2 | – | – | – | > 100000 | – | –
NCCCCN(Cc1ccccn1)C1CCCc2cccnc21 (stereo not shown) [Compound 20, N1-(Pyridin-2-ylmethyl)-N1-(5,6,7,8-tetrahydroquinolin-8-yl)butane-1,4-diamine] | – | – | – | – | – | 55400 | lack cytotoxicity | –

More lines, main results first:

IC50 [1] [nM] | IC50 [3, 7] [nM] | IC50 ([3]; span over all assays (binding, calcium, HIV-1, HIV-2), read-out: IC50 values in all assays) [nM] | EC50 [5] [nM] | EC50 [6] [nM] | SMILES | CC50 at 5 days [2] [nM] | cytotoxicity for the MT4 cell line [4] | CC50 ([4]; Concentration required to reduce the viability of mock-infected MT4 cells by 50%) [nM]
180 | – | – | – | – | Cc1cccnc1CN(CCCCN)Cc1ccccn1 [Compound 25, N1-((3-Methylpyridin-2-yl)methyl)-N1-(pyridin-2-ylmethyl)butane-1,4-diamine] | 79800 | – | –
6.1 | 0.64 | 0.6 to 6 | – | – | Cc1cccnc1CN(CCCCN)Cc1nccc2cc(F)ccc12 [Compound 24c, N1-((6-Fluoroisoquinolin-1-yl)methyl)-N1-((3-methylpyridin-2-yl)methyl) butane-1,4-diamine] | 31000 | lack cytotoxicity | 30800
5500 | 36 | – | 380 | > 9460 | NCCCCN(Cc1ccccn1)c1cccc2cccnc12 [Compound 31b, N^1-(pyridin-2-ylmethyl)-N^1-(quinolin-8-yl)butane-1,4-diamine] | 9460 | – | –
5 | 2.3 | – | 18 | 1.3 | NCCCCN(Cc1nccc2ccccc12)c1cccc2cccnc12 [Compound 31c, N^1-(isoquinolin-1-ylmethyl)-N^1-(quinolin-8-yl)butane-1,4-diamine] | 2980 | – | –
> 50000 | > 100000 | – | > 41600 | > 41600 | NCCCCN(Cc1ccccc1)c1cccc2cccnc12 [Compound 31a, N^1-benzyl-N^1-(quinolin-8-yl)butane-1,4-diamine] | 41600 | – | –
690 | 39 | – | – | – | Cc1cccnc1CN(CCCCN)Cc1nccc2cc(Br)ccc12 [Compound 24d, N1-((6-Bromoisoquinolin-1-yl)methyl)-N1-((3-methylpyridin-2-yl)methyl) butane-1,4-diamine] | 29500 | – | –
